In PMC3646166, “Comparison of Aqueous and 1-Octanol Solubility as well as Liquid–Liquid Distribution of Acyclovir Derivatives and Their Complexes with Hydroxypropyl-β-Cyclodextrin” (Journal of Solution Chemistry, 2013):
≈ marks a conversion by molar mass, not a printed value. Where two headings read alike, the source gives them in different places.

Legend:
[1] = Solubility in water or 1-octanol (saturated solutions, UV-Vis); type: physicochemical; conditions: for solubility: thermodynamic from solid, water
Protocol: The sample of substance examined (10 mg or 80 mg for 6-Me-TACV) was placed in a glass ampoule and double-distilled, deionized water (Millipore, Elix 5 purifier), or pure anhydrous 1-octanol (Sigma 99 %) was added. To attain thermodynamic equilibrium, the solute and the solvent were mixed continuously for a minimum of 4 days at a speed of 25 rpm. After the experiment was completed, the sample was centrifuged at 40,000 rpm for 40 min at 25 ± 0.1 °C, the supernatant liquid was collected, diluted, and its concentration determined with a UV–Vis (Varian Carry IE) spectrophotometer. The experiments were repeated at least three times for each solubility.

[2] = Extraction experiments, 1-octanol-water partition coefficient; type: physicochemical; conditions: 25 °C, read-out: Partition coefficient 1-octanol–water, P oc/w (converted)
Protocol: The equipment described above was also used for the determination of the 1-octanol-water partition coefficients. […] The partition coefficient was evaluated as:1 Poc/w=Coc/Cw where C oc and C w are the molar concentrations of the solute in the 1-octanol and water phases, respectively. The correctness of the P oc/w value of each compound was verified by checking the mass balance of the starting amount of the substance and the total amount of the substance partitioned between the two phases.

[3] = Solubility in buffered cyclodextrin solutions (excess method of Higuchi and Connors); type: physicochemical; parameters: Stability constant K s of HP-β-CD complex: unit not given here
Protocol: Solubilities of the studied compounds was ensured according to the excess method of Higuchi and Connors. […] An excess amount of compounds 4-9 and 11-12 was added to 1.5 mL of aqueous phosphate buffer (concentration of buffer was equal 0.067 mol·dm^-3) solutions, (pH = 5.5 or 7.0) containing various concentration of HP-β-CD. The cyclodextrin concentration changed in the range of 10^-3 to 2 × 10^-2 mol·dm^-3. The suspensions were shaken in screw-capped plastic vials in a water bath thermostat with the volume of 60 dm^3 (home made apparatus by IChF PAN) at 25 and 37 °C. After 7 days equilibrium was reached and then the suspensions were centrifuged and the absorbance of the studied compounds was measured by UV-Vis spectrophotometry using a Shimadzu UV 2401 PC Spectrometer equipped with a thermostatically controlled cell compartment. During the measurement of absorbance, a buffered-solution of HP-β-CD, of the same concentration as in the studied solution, was always put as the reference. The average values of at least three independent determinations of the absorbance were used for calculation of the concentrations of the particular acyclovir derivatives. […] The main reason for the low solubility of tricyclic acyclovir derivatives with aromatic groups in water is the high hydrophobicity of these substituents. Use of cyclodextrins, which can include aromatic groups into their cavity, may enhance the aqueous solubility of such compounds. For this purpose we used several cyclodextrins and hydroxypropyl-β-cyclodextrin was chosen as being more efficient for complexating the tricyclic acyclovir derivatives. The investigations were performed, for chosen compounds, in various cyclodextrin HP-β-CD, buffered solutions (pH = 5.5 and 7.0) at 25 and 37 °C. […] Values of the correlation parameters a and b for tricyclic acyclovir derivatives complexed by cyclodextrin are presented in Table 3. […] The stability constants of the inclusion complexes between HP-β-CD and acyclovir derivatives have been calculated according to the Higuchi-Connors method using:3 K=b/C0(1-b) where C 0 is the solubility of the sample in solutions without cyclodextrin, obtained by determination of saturated solution concentration of acyclovir derivative solutions. […] These two values can differ, but in our study are very close to each other.

[4] = parameters: method as in earlier work; conditions: human body ref 1; cited from earlier work
[5] = 25 °C (Table 1), read-out: Solubility in water, C w
[6] = water saturated with 1-octanol, 25 °C, read-out: Solubility in water saturated with 1-octanol, C woc
[7] = 35 °C, read-out: Aqueous solubility, C w
[8] = 45 °C, read-out: Aqueous solubility, C w
[9] = buffered HP-β-CD solutions, pH = 5.5, 25 °C
[10] = buffered HP-β-CD solutions, pH = 5.5, 37 °C
[11] = buffered HP-β-CD solutions, pH = 7.0, 25 °C
[12] = buffered HP-β-CD solutions, pH = 7.0, 37 °C

solubility [1, 5] | solubility [1, 6] | solubility [1, 7] | solubility [1, 8] | logP at 2 days [2] | Solubility ratio in 1-octanol and water, C oc/C w ([1]; 25 °C) | Solubility ratio in 1-octanol saturated with water and water saturated with 1-octanol, C ocw/C woc ([1]; 25 °C) | Correlation parameter a (Eq. 2, Cs = a + b·CCD) [3, 9] | Correlation parameter b (Eq. 2, Cs = a + b·CCD) [3, 9] | Correlation parameter a (Eq. 2, Cs = a + b·CCD) [3, 10] | Correlation parameter b (Eq. 2, Cs = a + b·CCD) [3, 10] | Correlation parameter a (Eq. 2, Cs = a + b·CCD) [3, 11] | Correlation parameter b (Eq. 2, Cs = a + b·CCD) [3, 11] | Correlation parameter a (Eq. 2, Cs = a + b·CCD) [3, 12] | Correlation parameter b (Eq. 2, Cs = a + b·CCD) [3, 12] | Stability constant K s of HP-β-CD complex ([3]; pH = 5.5, 25 °C) | Stability constant K s of HP-β-CD complex ([3]; pH = 5.5, 37 °C) | Stability constant K s of HP-β-CD complex ([3]; pH = 7, 25 °C) | Stability constant K s of HP-β-CD complex ([3]; pH = 7, 37 °C) | SMILES | further results
8070 µM (≈ 1820 µg/mL) | 7440 µM (≈ 1680 µg/mL) | 16200 µM (≈ 3650 µg/mL) | 19700 µM (≈ 4440 µg/mL) | -1.44 |  |  |  |  |  |  |  |  |  |  |  |  |  |  | Nc1nc2c(ncn2COCCO)c(=O)[nH]1 [Compound 1, 9-[(2-hydroxyethoxy)methyl] guanine, reference compound] | 
1030 µM (≈ 313 µg/mL) | 859 µM (≈ 261 µg/mL) | 1900 µM (≈ 578 µg/mL) | 2490 µM (≈ 757 µg/mL) | -0.264 | 0.430 | 0.802 |  |  |  |  |  |  |  |  |  |  |  |  | Nc1nc2c(nc(Br)n2COCCO)c(=O)[nH]1 [Compound 2, 8-bromo-9-[(2-hydroxyethoxy)methyl] guanine] | 
12300 µM (≈ 3140 µg/mL) | 11000 µM (≈ 2810 µg/mL) | 21800 µM (≈ 5560 µg/mL) | 22900 µM (≈ 5840 µg/mL) | -1.77 |  |  |  |  |  |  |  |  |  |  |  |  |  |  | Nc1nc(O)c2ncn(COC(CO)CO)c2n1 [Compound 3, 9-[(1,3-dihydroxy-2-propoxy)methyl]guanine, reference compound] | 
3070 µM (≈ 765 µg/mL) | 2720 µM (≈ 678 µg/mL) | 5910 µM (≈ 1470 µg/mL) | 6750 µM (≈ 1680 µg/mL) | -0.86 | 0.046 | 0.157 | 2.64 × 10^−3 | 1.98 × 10^−2 | 5.15 × 10^−3 | 2.72 × 10^−2 | 2.48 × 10^−3 | 2.05 × 10^−2 | 4.79 × 10^−3 | 2.56 × 10^−2 | 8.0 (±1) dm·mol^−1 | 6.0 (±1) dm·mol^−1 | 8.0 (±1) dm·mol^−1 | 6.0 (±1) dm·mol^−1 | O=c1c2ncn(COCCO)c2nc2[nH]ccn12 [Compound 4, 3,9-dihydro-3-[(2-hydroxyethoxy)methyl]-9-oxo-5H-imidazol[1,2-a]purine] | 
18700 µM (≈ 4920 µg/mL) | 13100 µM (≈ 3450 µg/mL) | 26600 µM (≈ 7000 µg/mL) | 32400 µM (≈ 8530 µg/mL) | -0.688 | 0.173 | 0.274 |  |  |  |  |  |  |  |  |  |  |  |  | Cc1cn2c(=O)c3ncn(COCCO)c3nc2[nH]1 [Compound 5] | 
2110 µM (≈ 722 µg/mL) | 1050 µM (≈ 360 µg/mL) | 2360 µM (≈ 807 µg/mL) | 2590 µM (≈ 886 µg/mL) | -0.108 | 0.108 | 0.816 | 1.18 × 10^−3 | 2.66 × 10^−2 | 2.35 × 10^−3 | 5.94 × 10^−2 | 1.03 × 10^−3 | 2.57 × 10^−2 | 2.01 × 10^−3 | 3.23 × 10^−2 | 27 (±2) dm·mol^−1 | 26 (±2) dm·mol^−1 | 26 (±2) dm·mol^−1 | 17 (±1) dm·mol^−1 | Cc1cn2c(=O)c3nc(Br)n(COCCO)c3nc2[nH]1 [Compound 6] | 
3080 µM (≈ 940 µg/mL) | 3780 µM (≈ 1150 µg/mL) | 20400 µM (≈ 6230 µg/mL) | 31900 µM (≈ 9740 µg/mL) | 0.616 | 5.16 | 2.62 |  |  |  |  |  |  |  |  |  |  |  |  | CC(C)(C)c1cn2c(=O)c3ncn(COCCO)c3nc2[nH]1 [Compound 7] | Type of solubility diagram (solubility versus cyclodextrin concentration) ([3]; buffered HP-β-CD solutions): An type of solubility diagram
238 µM (≈ 77.4 µg/mL) | 334 µM (≈ 109 µg/mL) | 517 µM (≈ 168 µg/mL) | 728 µM (≈ 237 µg/mL) | 0.545 | 7.48 | 4.76 | 1.86 × 10^−4 | 2.22 × 10^−2 | 3.27 × 10^−4 | 3.57 × 10^−2 | 2.50 × 10^−4 | 2.60 × 10^−2 | 3.36 × 10^−4 | 3.60 × 10^−2 | 122 (±2) dm·mol^−1 | 113 (±10) | 107 (±8) | 105 (±6) dm·mol^−1 | O=c1c2ncn(COCCO)c2nc2[nH]c(-c3ccccc3)cn12 [Compound 8] | 
229 µM (≈ 91.9 µg/mL) | 583 µM (≈ 234 µg/mL) | 554 µM (≈ 222 µg/mL) | 658 µM (≈ 264 µg/mL) | 0.491 | 8.90 | 3.10 | 2.18 × 10^−4 | 2.12 × 10^−2 | 5.03 × 10^−4 | 2.98 × 10^−2 | 2.65 × 10^−4 | 2.84 × 10^−2 | 5.95 × 10^−4 |  | 100 (±8) | 61 (±5) | 110 (±6) dm·mol^−1 | 68 (±4) | O=c1c2ncn(COCCO)c2nc2[nH]c(-c3ccc(-c4ccccc4)cc3)cn12 [Compound 9] | 
364 µM (≈ 147 µg/mL) | 412 µM (≈ 167 µg/mL) | 898 µM (≈ 363 µg/mL) | 1280 µM (≈ 517 µg/mL) | 0.549 | 2.14 | 1.65 |  |  |  |  |  |  |  |  |  |  |  |  | O=c1c2ncn(COCCO)c2nc2[nH]c(-c3ccc(Br)cc3)cn12 [Compound 10] | 
166 µM (≈ 62.3 µg/mL) | 191 µM (≈ 71.7 µg/mL) | 256 µM (≈ 96.1 µg/mL) | 265 µM (≈ 99.5 µg/mL) | 0.549 | 4.37 | 3.58 | 2.99 × 10^−5 | 0.88 × 10^−2 | 3.37 × 10^−5 | 0.93 × 10^−2 | 3.05 × 10^−5 | 0.94 × 10^−2 | 4.29 × 10^−5 | 1.29 × 10^−2 | 297 (±7) | 279 (±9) | 311 (±9) | 305 (±9) | O=c1c2ncn(COCCO)c2nc2[nH]c(-c3ccc4ccccc4c3)cn12 [Compound 12] | 
 |  |  |  |  |  |  |  |  |  |  |  |  |  |  |  |  |  |  | CC(C)[C@H](N)C(=O)OCCOCn1cnc2c(=O)[nH]c(N)nc21 [valacyclovir] | Absorption relative to application of acyclovir [4]: four times higher
